Measurements reported in the NIST ThermoML archive (doi:10.1016/j.jct.2016.01.019).

Experiment: refractive index (other wavelength) (dimensionless); xn = mol fraction of the nth substance listed
Conditions: 94.64 kPa, Liquid, Standard Abbe refractometry

OCCCO [propan-1,3-diol] + CC(O)CO
refractive index
Conditions	x2 = 0	x2 = 0.0985	x2 = 0.2023	x2 = 0.3015	x2 = 0.3961	x2 = 0.5009	x2 = 0.5961	x2 = 0.6965	x2 = 0.7974	x2 = 0.8985
293.15 K, Wavelength=404.7 nm	1.45177	1.45152	1.45117	1.45077	1.45025	1.44969	1.44909	1.44823	1.44738	1.44618
293.15 K, Wavelength=435.8 nm	1.44842	1.44817	1.44786	1.44741	1.44688	1.44623	1.4456	1.44492	1.44401	1.44315
293.15 K, Wavelength=486.1 nm	1.4444	1.44417	1.44386	1.44341	1.4429	1.44217	1.44132	1.44021	1.43935	1.43821
293.15 K, Wavelength=546.1 nm	1.44112	1.44088	1.44041	1.44013	1.43961	1.43884	1.43806	1.43695	1.4362	1.43491
293.15 K, Wavelength=587.6 nm	1.43939	1.43913	1.43875	1.4384	1.43788	1.43721	1.43623	1.43524	1.43439	1.43321
293.15 K, Wavelength=632.8 nm	1.43781	1.43756	1.43729	1.43683	1.43632	1.43545	1.43467	1.43369	1.43253	1.43168
293.15 K, Wavelength=644 nm	1.43746	1.43722	1.43699	1.43649	1.43597	1.43501	1.43435	1.43334	1.43219	1.43133
293.15 K, Wavelength=706.5 nm	1.43577	1.43555	1.43506	1.43479	1.43428	1.43373	1.43315	1.43207	1.4311	1.42985
298.15 K, Wavelength=404.7 nm	1.45037	1.44979	1.44932	1.4489	1.44849	1.44768	1.44694	1.44595	1.44515	1.44396
298.15 K, Wavelength=435.8 nm	1.447	1.44654	1.44606	1.44553	1.44512	1.44432	1.4436	1.44261	1.44156	1.44059
298.15 K, Wavelength=486.1 nm	1.44301	1.44246	1.44198	1.44156	1.44107	1.44037	1.43963	1.43868	1.43776	1.43667
298.15 K, Wavelength=546.1 nm	1.43975	1.43919	1.43879	1.4383	1.43762	1.43712	1.43618	1.43541	1.43467	1.43341
298.15 K, Wavelength=587.6 nm	1.43802	1.43746	1.437	1.43658	1.43619	1.43539	1.43469	1.43371	1.43285	1.43168
298.15 K, Wavelength=632.8 nm	1.43645	1.4359	1.43532	1.43502	1.43462	1.43383	1.43322	1.43217	1.43136	1.43004
298.15 K, Wavelength=644 nm	1.43611	1.43555	1.43498	1.43455	1.43428	1.43349	1.433	1.43183	1.43102	1.4298
298.15 K, Wavelength=706.5 nm	1.43441	1.43388	1.43335	1.43299	1.4326	1.43191	1.43129	1.43036	1.42924	1.42812
303.15 K, Wavelength=404.7 nm	1.44902	1.44844	1.44795	1.44749	1.44689	1.44619	1.44547	1.44435	1.44351	1.44237
303.15 K, Wavelength=435.8 nm	1.44566	1.44521	1.44451	1.44394	1.44353	1.44285	1.44213	1.44101	1.44017	1.43903
303.15 K, Wavelength=486.1 nm	1.44168	1.44133	1.44074	1.44019	1.43962	1.43892	1.43821	1.43713	1.43628	1.43516
303.15 K, Wavelength=546.1 nm	1.43844	1.43797	1.43739	1.43695	1.43637	1.43567	1.43498	1.43387	1.43316	1.43194
303.15 K, Wavelength=587.6 nm	1.43671	1.43615	1.43575	1.43524	1.43466	1.43396	1.43314	1.43216	1.43125	1.43024
303.15 K, Wavelength=632.8 nm	1.43514	1.4344	1.43386	1.43339	1.43311	1.43232	1.43161	1.43065	1.42981	1.42869
303.15 K, Wavelength=644 nm	1.4348	1.43405	1.43371	1.43304	1.43277	1.43207	1.43136	1.43031	1.42947	1.42834
303.15 K, Wavelength=706.5 nm	1.43312	1.43234	1.43183	1.43136	1.43109	1.4304	1.42989	1.42884	1.428	1.42669
